Data as given in ChEMBL document CHEMBL1147077, “Induced-fit tightens pleuromutilins binding to ribosomes and remote interactions enable their selectivity” (Proc Natl Acad Sci U S A, 2007).
pKd: −log10 of the molar value.

How the values were obtained:
[1] = Displacement of [3H]SB-2587891 from Escherichia coli ribosomes; assay type: subcellular, Ribosome
[2] = tested on: Streptococcus pyogenes; experiment: Antimicrobial activity against Streptococcus pyogenes; assay type: functional
[3] = tested on: Staphylococcus aureus; experiment: Antimicrobial activity against Staphylococcus aureus; assay type: functional

Row | MIC [2] | MIC [3] | Structure (SMILES) | pKd [1]
1 | – | – | C=C[C@]1(C)C[C@@H](OC(=O)CSC2CCNCC2)[C@]2(C)[C@H](C)CC[C@]3(CCC(=O)[C@H]32)[C@@H](C)[C@@H]1O | 8.12
2 | – | – | C=C[C@]1(C)C[C@@H](OC(=O)NC(=O)c2ccc(N)nn2)[C@]2(C)[C@H](C)CC[C@]3(C[C@H](O)C(=O)[C@H]32)[C@@H](C)[C@@H]1O | 7.95
3 | ≤ 0.5 µg/mL | ≤ 0.5 µg/mL | C=C[C@]1(C)C[C@@H](OC(=O)CS[C@@H]2C[C@H]3CC[C@@H](C2)N3C)[C@]2(C)[C@H](C)CC[C@]3(CCC(=O)[C@H]32)[C@@H](C)[C@@H]1O [RETAPAMULIN] | 8.70
